This is an account of results in patent US20230212138A1, “PHD INHIBITOR COMPOUNDS, COMPOSITIONS, AND THEIR USE” (Akebia Therapeutics, Inc., priority 2020, published 2023).

As usually defined, the IC50 is the midpoint of a concentration-inhibition curve. Read a high IC50 as a need for much substance.

The structures appear in SMILES notation.

Holding throughout (type): biochemical
One assay has as its target T1, full-length human PHD1 (Homo sapiens, UniProt Q96KS0).
T1 construct: expressed in a baculovirus expression system as the full-length protein; FLAG (N); purchased Active Motif 81064; host or cells: baculovirus expression system
In words: TR-FRET assay, PHD1 enzymatic IC50. As to conditions: 15 nM PHD1, 1 μM 2-OG. An excerpt:
(§1) In the presence of 2-oxoglutarate and O2, PHD enzyme hydroxylates proline 564 of biotin-tagged HIF-1α peptide resulting in generation of biotin-tagged HIF-1α-hydroxyproline, succinate and CO2. The resulting proximity of the donor fluorophore complex, monoclonal antibody anti-6His-Terbium (Tb)-cryptate Gold, bound to the His-tagged VHL protein, EloB, EloC complex (His-VBC) and the acceptor fluorophore, SA-D2 complex, bound to HIF-1α-hydroxyproline results in a fluorescence resonance energy transfer signal that can be detected and quantified
(§2) Time-resolved fluorescence resonance energy transfer (TR-FRET) assay was utilized to determine the enzymatic half maximal inhibitory concentration (IC50) value of PHD inhibitors against the full-length human prolyl-4-hydroxylase domain (PHD) enzymes, PHD1, PHD2, and PHD3. The TR-FRET assay was developed based on the specific binding of hydroxylated HIF-1α peptide with the complex formed by VHL, EloB and EloC (VBC), to generate a fluorescent signal. Terbium (Tb)-Donor (monoclonal antibody anti-6His-Tb-cryptate Gold) and D2-acceptor (streptavidin [SA]-D2) of TR-FRET are linked to the VBC complex and to HIF-1α peptide, respectively. The VBC complex binds specifically to the HIF-1α peptide when it is hydroxylated, allowing energy transfer from TR-FRET donor to acceptor (FIG. 1).
Recombinant human PHD1 protein (catalog #81064, Lot #24717001) was purchased from Active Motif (Carlsbad, Calif., USA). PHD1 was expressed in a baculovirus expression system as the full-length protein (NCBI accession number NP_542770.2) with an N-terminal FLAG tag (molecular weight 44.9 kDa). Purity (>90%) was assessed by SDS-PAGE.
(§3) PHD inhibitor compound was preincubated with PHD enzyme in a 10 μL reaction volume in white 384-well Optiplate microplates (catalog #6007290, Perkin Elmer, Waltham, Mass., USA). For this, 5 μL PHD inhibitor compound was serially diluted with dilution buffer (50 mM HEPES [4-(2-hydroxyethyl)-1-piperazineethanesulfonic acid] pH 7.5, 50 mM sodium chloride [NaCl], 0.01% Tween-20, 0.01% purified bovine serum albumin [BSA]) and mixed with 5 μL PHD enzyme mix prepared as a 4× concentrate in the dilution buffer containing PHD enzyme (60 nM PHD1, 20 nM PHD2, 140 nM PHD3), 40 μM ferrous ammonium sulfate (FAS), 4 mM sodium (Na) ascorbate. The plates were incubated for 30 minutes at room temperature without rotation.
(§4) Five microliters of the VBC/anti-6His-Tb-cryptate Gold mix prepared as a 4×concentrate in dilution buffer containing 20 nM His-VBC, 1.32 nM monoclonal antibody anti-6His-Tb-cryptate Gold was then added. This step was followed immediately by the addition of 5 μL of the HIF-1α C35 substrate mix prepared as a 4×concentrate in the dilution buffer containing 120 nM biotin-labeled HIF-1α C35, 132 nM SA-D2, 4 μM 2-oxoglutarate (2-OG) to reach a final reaction volume of 20 μL.
(§5) The final assay reaction contained 50 mM HEPES, pH 7.5, 50 mM NaCl, 1 μM 2-OG, 10 μM FAS, 1 mM Na ascorbate, 0.01% Tween-20, 0.01% purified BSA, 30 nM biotin-labeled HIF-1α C35, 5 nM His-VBC, 0.33 nM monoclonal antibody anti-6His-Tb-cryptate Gold, 33 nM SA-D2 and PHD enzyme (15 nM PHD1, 5 nM PHD2, or 35 nM PHD3) with the diluted compound.
(§6) For the measurement of the IC50 of PHD inhibitor compound, reactions were incubated for 10 minutes at room temperature and then read on a Perkin Elmer EnVision (Waltham, Mass., USA) at an excitation wavelength of 340 nm and at emission wavelengths of 615 nm and 665 nm. The data represent the quotient of the signal intensity at 665 nm and 615 nm, automatically calculated by Envision Manager software (Perkin Elmer, Waltham, Mass., USA). The IC50 values (mean, standard deviation, standard error of the mean, geometric mean and 95% confidence interval) were determined using a four-parameter curve-fit using GraphPad Prism 7.0 (GraphPad, La Jolla, Calif., USA) and represent the compound concentration plotted against the calculated ratio of 665 nm and 615 nm. […]
For orientation: Time-resolved FRET reads energy transfer from a long-lived donor to a nearby acceptor.

A further assay addresses T2, full-length human PHD2 (Homo sapiens, UniProt Q9GZT9).
T2 construct: The PHD2 construct contained amino acids 1 to 426 of PHD2; His tag (N, cleaved yes); TEV protease cleavage site (N, cleaved yes); host or cells: Sf9 insect cells (baculovirus)
Nature of the assay: TR-FRET assay, PHD2 enzymatic IC50. The conditions noted are these: 5 nM PHD2, 1 μM 2-OG.
Excerpt: as §1, §2
The full-length human PHD2 enzyme was produced with a baculovirus infected insect cell (BIIC) expression system by Beryllium (Bedford, Mass., USA). The PHD2 construct contained amino acids 1 to 426 of PHD2 (UniProt Knowledgebase[UniProtKB]/Swiss-Prot accession number Q9GZT9.1), and a His tag and a Tobacco Etch Virus (TEV) protease cleavage site at the N-terminus. The construct was expressed in Sf9 insect cells, purified by Ni-NTA column and digested with TEV protease to remove the His tag.
as §3, §4, §5
For the measurement of the IC50 of PHD inhibitor compound, reactions were incubated for 10 minutes at room temperature and then read on a Perkin Elmer EnVision (Waltham, Mass., USA) at an excitation wavelength of 340 nm and at emission wavelengths of 615 nm and 665 nm. The data represent the quotient of the signal intensity at 665 nm and 615 nm, automatically calculated by Envision Manager software (Perkin Elmer, Waltham, Mass., USA). […]

In another assay the target is T3, full-length human PHD3 (Homo sapiens, UniProt Q9H6Z9).
T3 construct: It was expressed in E. coli as the full-length protein; 6-His (N); purchased Active Motif 81033; host or cells: E. coli
Nature of the assay: TR-FRET assay, PHD3 enzymatic IC50. As to conditions: 35 nM PHD3, 1 μM 2-OG.
Excerpt: as §1, §2
Recombinant human PHD3 protein (molecular weight 31.1 kDa) was purchased from Active Motif (Carlsbad, Calif., USA). It was expressed in E. coli as the full-length protein (NCBI accession number NP_071356.1) with an N-terminal 6-His tag (catalog #81033, Lot #24417001).
as §3, §4, §5, §6

T1 sequence (Q96KS0 whole entry): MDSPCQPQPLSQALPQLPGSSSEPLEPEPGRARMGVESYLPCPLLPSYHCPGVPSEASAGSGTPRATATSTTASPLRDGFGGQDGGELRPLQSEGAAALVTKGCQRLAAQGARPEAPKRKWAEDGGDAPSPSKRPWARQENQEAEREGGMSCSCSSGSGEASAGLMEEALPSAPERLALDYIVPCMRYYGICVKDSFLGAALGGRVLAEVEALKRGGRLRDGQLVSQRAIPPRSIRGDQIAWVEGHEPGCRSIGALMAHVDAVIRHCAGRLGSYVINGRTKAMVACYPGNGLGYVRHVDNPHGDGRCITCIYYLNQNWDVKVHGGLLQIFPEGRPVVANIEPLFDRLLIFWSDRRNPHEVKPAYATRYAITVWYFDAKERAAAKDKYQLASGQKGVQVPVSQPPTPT
T3 sequence (Q9H6Z9 whole entry): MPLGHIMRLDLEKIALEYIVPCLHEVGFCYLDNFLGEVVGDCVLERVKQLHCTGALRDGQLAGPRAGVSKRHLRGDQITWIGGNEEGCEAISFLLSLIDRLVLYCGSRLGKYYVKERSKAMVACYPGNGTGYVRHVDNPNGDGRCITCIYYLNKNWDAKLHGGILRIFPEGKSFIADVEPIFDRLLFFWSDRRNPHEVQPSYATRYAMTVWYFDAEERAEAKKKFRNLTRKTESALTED
T2 sequence (Q9GZT9 whole entry, the tested form may be a part): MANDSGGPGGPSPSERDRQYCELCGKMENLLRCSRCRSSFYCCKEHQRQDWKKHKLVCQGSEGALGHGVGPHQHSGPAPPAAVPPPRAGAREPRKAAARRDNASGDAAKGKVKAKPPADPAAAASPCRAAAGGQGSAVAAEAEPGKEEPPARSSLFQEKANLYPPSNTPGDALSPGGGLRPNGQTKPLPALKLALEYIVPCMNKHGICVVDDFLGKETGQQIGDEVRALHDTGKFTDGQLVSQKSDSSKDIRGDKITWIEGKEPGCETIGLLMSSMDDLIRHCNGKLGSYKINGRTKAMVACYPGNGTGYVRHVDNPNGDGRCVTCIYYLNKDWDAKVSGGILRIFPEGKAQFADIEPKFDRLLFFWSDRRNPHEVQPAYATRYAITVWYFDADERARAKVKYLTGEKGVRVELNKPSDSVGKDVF

Take `CC(=O)c1ccc(-n2ncc(-c3ccc(C#N)cc3)c2O)nc1` [Compound 1, 4-(1-(5-acetylpyridin-2-yl)-5-hydroxy-1H-pyrazol-4-yl)benzonitrile]: the IC50 against full-length human PHD1, on full-length human PHD2 and against full-length human PHD3 was less than 100 nM in each case.

Consider `CCC(=O)c1ccc(-n2ncc(-c3ccc(C#N)cc3)c2O)nc1` [Compound 2, 4-(5-hydroxy-1-(5-propionylpyridin-2-yl)-1H-pyrazol-4-yl)benzonitrile], for which the IC50 against full-length human PHD1, against full-length human PHD2 and at full-length human PHD3 was less than 100 nM throughout.

Consider `CC(C)C(=O)c1ccc(-n2ncc(-c3ccc(C#N)cc3)c2O)nc1` [Compound 3, 4-(5-hydroxy-1-(5-isobutyrylpyridin-2-yl)-1H-pyrazol-4-yl)benzonitrile], for which the IC50 on full-length human PHD1, at full-length human PHD2 and at full-length human PHD3 was less than 100 nM throughout.

On to `CS(=O)(=O)c1ccc(-n2ncc(-c3ccc(C#N)cc3)c2O)nc1` [Compound 4, 4-(5-hydroxy-1-(5-(methylsulfonyl)pyridin-2-yl)-1H-pyrazol-4-yl)benzonitrile], for which the 50% inhibitory concentration (IC50) against full-length human PHD1, against full-length human PHD2 and against full-length human PHD3 was less than 100 nM each time.

Consider `CS(=O)(=O)c1ccc(-n2ncc(-c3cccc(C#N)c3)c2O)nc1` [Compound 5, 3-(5-hydroxy-1-(5-(methylsulfonyl)pyridin-2-yl)-1H-pyrazol-4-yl)benzonitrile], for which the IC50 was 100 to 1000 nM against full-length human PHD1 and less than 100 nM against full-length human PHD2.

For the molecule `Cc1cc(C#N)ccc1-c1cnn(-c2ccc(S(C)(=O)=O)cn2)c1O` [Compound 6, 4-(5-hydroxy-1-(5-(methylsulfonyl)pyridin-2-yl)-1H-pyrazol-4-yl)-3-methylbenzonitrile], the IC50 against full-length human PHD1, against full-length human PHD2 and against full-length human PHD3 was less than 100 nM each time.

As for `CS(=O)(=O)c1ccc(-n2ncc(-c3ccc(CC#N)cc3)c2O)nc1` [Compound 7, 2-(4-(5-hydroxy-1-(5-(methylsulfonyl)pyridin-2-yl)-1H-pyrazol-4-yl)phenyl)acetonitrile], the IC50 against full-length human PHD1, on full-length human PHD2 and at full-length human PHD3 was less than 100 nM throughout.

In the case of `N#Cc1ccc(-c2cnn(-c3ccc(-c4ccccn4)cn3)c2O)cc1` [Compound 13, 4-(1-([2,3′-bipyridin]-6′-yl)-5-hydroxy-1H-pyrazol-4-yl)benzonitrile], the 50% inhibitory concentration (IC50) on full-length human PHD1 was less than 100 nM; against full-length human PHD2 it was 100 to 1000 nM.

As for `N#Cc1ccc(-c2cnn(-c3ccc(C(F)(F)F)cn3)c2O)cc1` [Compound 14, 4-(5-hydroxy-1-(5-(trifluoromethyl)pyridin-2-yl)-1H-pyrazol-4-yl)benzonitrile], the IC50 against full-length human PHD1 was 100 to 1000 nM; at full-length human PHD2 it was 1000 to 10000 nM.

For `N#Cc1ccc(-c2cnn(-c3ccc(C4CC4)cn3)c2O)cc1` [Compound 16, 4-(1-(5-cyclopropylpyridin-2-yl)-5-hydroxy-1H-pyrazol-4-yl)benzonitrile], the IC50 on full-length human PHD1 is 100 to 1000 nM; at full-length human PHD2, no less than 10000 nM.

Turning to `N#Cc1ccc(-c2cnn(-c3ccc(Cl)cn3)c2O)cc1` [Compound 18, 4-(1-(5-chloropyridin-2-yl)-5-hydroxy-1H-pyrazol-4-yl)benzonitrile], the IC50 against full-length human PHD1 and at full-length human PHD2 was 100 to 1000 nM each time.

In the case of `N#Cc1ccc(-c2cnn(-c3ccc(Br)cn3)c2O)cc1` [Compound 21, 4-(1-(5-bromopyridin-2-yl)-5-hydroxy-1H-pyrazol-4-yl)benzonitrile], the concentration for half-maximal inhibition (IC50) at full-length human PHD1 and at full-length human PHD2 was 100 to 1000 nM in each case.

As to `CS(=N)(=O)c1ccc(-n2ncc(-c3ccc(C#N)cc3)c2O)nc1` (stereo not shown) [Compound 26, 4-(5-hydroxy-1-(5-(S-methylsulfonimidoyl)pyridin-2-yl)-1H-pyrazol-4-yl)benzonitrile], the IC50 on full-length human PHD1 and against full-length human PHD2 was less than 100 nM in each case.

Regarding `CS(=O)(=O)NC(=O)c1ccc(-n2ncc(-c3ccc(C#N)cc3)c2O)nc1` [Compound 27, 6-(4-(4-cyanophenyl)-5-hydroxy-1H-pyrazol-1-yl)-N-(methylsulfonyl) nicotinamide], the IC50 on full-length human PHD1 and against full-length human PHD2 was less than 100 nM throughout.

Take `N#Cc1ccc(-c2cnn(-c3ccc(NC(=O)N4CCOCC4)cn3)c2O)cc1` [Compound 28, N-(6-(4-(4-cyanophenyl)-5-hydroxy-1H-pyrazol-1-yl)pyridin-3-yl)morpholine-4-carboxamide]: the half-inhibitory concentration (IC50) against full-length human PHD1 and against full-length human PHD2 was no less than 10000 nM each time.

In the case of `CC(=O)NS(=O)(=O)c1ccc(-n2ncc(-c3ccc(C#N)cc3)c2O)nc1` [Compound 29, N-((6-(4-(4-cyanophenyl)-5-hydroxy-1H-pyrazol-1-yl)pyridin-3-yl)sulfonyl)acetamide], the half-inhibitory concentration (IC50) at full-length human PHD1 and at full-length human PHD2 was less than 100 nM throughout.

`CP(C)(=O)c1ccc(-n2ncc(-c3ccc(C#N)cc3)c2O)nc1` [Compound 30, 4-(1-(5-(dimethylphosphoryl)pyridin-2-yl)-5-hydroxy-1H-pyrazol-4-yl)benzonitrile]: the IC50 on full-length human PHD1 and against full-length human PHD2 was less than 100 nM each time.

As to `CS(=O)(=O)c1ccc(-n2ncc(-c3ccc(Cl)cn3)c2O)nc1` [Compound 31, 4-(5-chloropyridin-2-yl)-1-(5-(methylsulfonyl)pyridin-2-yl)-1H-pyrazol-5-ol], the IC50 against full-length human PHD1 and against full-length human PHD2 was 100 to 1000 nM in each case.

`Cc1cc(C#N)ccc1-c1cnn(-c2ncc(S(C)(=O)=O)cc2Cl)c1O` [Compound 32, 4-(1-(3-chloro-5-(methylsulfonyl)pyridin-2-yl)-5-hydroxy-1H-pyrazol-4-yl)-3-methylbenzonitrile]: the IC50 against full-length human PHD1 and against full-length human PHD2 was no less than 10000 nM in each case.

Consider `N#Cc1ccc(-c2cnn(-c3ccc(NC(=O)N4CCNCC4)cn3)c2O)cc1` [Compound 33, N-(6-(4-(4-cyanophenyl)-5-hydroxy-1H-pyrazol-1-yl)pyridin-3-yl)piperazine-1-carboxamide], for which the IC50 against full-length human PHD1 and on full-length human PHD2 was no less than 10000 nM each time.
